What all share (type): cell-based, human
The subject of test [1] is whole blood from subjects with Type 1 Diabetes. Nature of the test: Whole blood IP-10 release assay, fine mapping of preproinsulin epitope (Example 3). Particulars: peptide 10 μM; average of 4 subjects with T1D; FIG. 1A-1C. The text has this:
The leader sequence of the preproinsulin epitope was fine mapped with lys-substituted peptides and C- and N-terminal truncations. […] Without wishing to be bound by any theory, a therapeutic and/or diagnostic peptide in accordance with the present disclosure may be selected to avoid CD8 activity but ensure that CD4 T cells were targeted. The data are the averages of 4 subjects whole blood IP-10 release measured as fold change over medium alone without peptide.
Whole blood was collected from 4 subjects with Type 1 Diabetes aged between 29 and 45-years old. […] In whole blood assays using fresh heparinized blood incubated with peptide (final concentration 10 μM) in phosphate buffered saline (PBS) and DMSO in 96-well round-bottom plates. Peptides (purity by LC-MS >80%) were truncations or lysine-substituted variants of a sequence in preproinsulin shown to be immunogenic in previous studies comparing peptides spanning this polypeptide. […] Assay plates were run on the Luminex MAGPIX magnetic plate reader. The upper limit of quantitation is 10,000 pg/mL and the lower limit of detection is 3.2 pg/mL. The Fold Change of cytokine concentrations from incubations with individual peptides was calculated by dividing the cytokine concentration from the individual peptide incubations by the cytokine concentration of incubations with PBS and DMSO (NIL) on the same assay plates. […]

For test [2], the system named is undepleted whole blood. Nature of the test: Whole blood cytokine assay, IL-2, undepleted blood, number of subjects with >=1.25 fold over medium (Example 2). Particulars: 24 h, peptides 20 ug/mL, pools 4 ug/mL, NEX-01/Nexgen POOL 25 uM, CEFT 1 ug/mL. The method, then:
(§1) The depleted blood as well as the remaining undepleted whole blood was then utilized in whole blood cytokine release assays. T-cell cytokine responses were assessed for reactivity to pools of 17mer peptides encompassing all unique 12mer amino-acid sequences derived from pancreatic islet antigens commonly recognized by autoantibodies in T1D: insulin, glutamic decarboxylase-65 (GAD65), and insulinoma-associated antigen (IA)-2 as provided in Table 13A and Table 13B.
(§2) Fresh heparinized blood was incubated with peptide. Concentrations of individual islet-autoantigen peptides were 20 μg/mL and constituent peptides in islet-autoantigen pools were 4 ug/mL. Control MHC class II peptide mix CEFT was used at 1 μg/mL. Gliadin peptide pools were added to whole blood assays at 25 μM. Whole blood assays were incubated for 24 h at 37° C. in 5% CO2. Plasma was separated from blood after centrifugation at 500×g for 10 minutes at room temperature and then transferred to a corresponding well in a “mirror image” sterile 96-well plate. and frozen at −80° C. until use. Multiplex bead-based cytokine assays (MAGPix) were performed according to manufacturer's instructions on thawed plasma. Concentrations of interferon (IFN)-γ-induced protein-10 (IP-10), interleukin (IL)-2 and IFN-γ. Table 14 is a summary of the results for the whole blood cytokine assays which expresses the data in the number of subjects that are positive for ≥1.25 fold production of cytokine over cells incubated with medium only (background).

The subject of test [3] is CD4+ T cell depleted blood. Nature of the test: Whole blood cytokine assay, IP-10, CD4+ T cell depleted blood (Example 2). Particulars: T1D Subjects (n of 6), 24 h, peptides 20 ug/mL, pools 4 ug/mL, NEX-01/Nexgen POOL 25 uM, CEFT 1 ug/mL. The method, then:
(§3) Depletion of human CD4+ and CD8+ T cells directly from whole blood, using CD4 and CD8 Dynabeads respectively (Dynabeads Human CD4, Life Technologies, #11145D; Dynabeads Human CD8, Life Technologies, #11145D), was done according to the manufacturer's protocol. Briefly, the Dynabeads were resuspended and the desired volume was transferred to a 15 Ml tube. The calculation of the volume of beads added to whole blood was 2×10^6 CD4 beads (25 μL) and 4×10^6 CD8 beads (50 μL) per Ml of whole blood. The beads were first washed with 3 Ml PBS, vortexed and placed on the magnet for 1 minute. Supernatant was discarded and beads were removed from the magnet. Whole blood was then added to the beads at the volume calculated for the concentration of beads in the tubes. The tubes containing whole blood and Dynabeads were then incubated 45 minutes at 4° C. on a continuous rocker.
(§4) Tubes were then placed into the magnet for 2 minutes. The whole blood supernatant was then transferred to a new tube for use in 24-hour Whole Blood Assay or for Flow Cytometric Analysis. Magnetic beads were discarded.
as §1, §2

The test system of test [4] is undepleted whole blood. Nature of the test: Whole blood cytokine assay, IP-10, undepleted blood, number of subjects with >=1.25 fold over medium (Example 2). Particulars: 24 h, peptides 20 ug/mL, pools 4 ug/mL, NEX-01/Nexgen POOL 25 uM, CEFT 1 ug/mL. The method, then:
as §1, §2

Test [5] has as its system CD8+ T cell depleted blood. Nature of the test: Whole blood cytokine assay, IP-10, CD8+ T cell depleted blood (Example 2). Particulars: T1D Subjects (n of 6), 24 h, peptides 20 ug/mL, pools 4 ug/mL, NEX-01/Nexgen POOL 25 uM, CEFT 1 ug/mL. The method, then:
as §3, §4, §1, §2

Test [6] deals with undepleted whole blood. In words: Whole blood cytokine assay, IFNg, undepleted blood, number of subjects with >=1.25 fold over medium (Example 2). The note with it: 24 h, peptides 20 ug/mL, pools 4 ug/mL, NEX-01/Nexgen POOL 25 uM, CEFT 1 ug/mL. The method, then:
as §1, §2

Test [7] relates to CD8+ T cell depleted blood. Nature of the test: Whole blood cytokine assay, IL-2, CD8+ T cell depleted blood (Example 2). Particulars: T1D Subjects (n of 6), 24 h, peptides 20 ug/mL, pools 4 ug/mL, NEX-01/Nexgen POOL 25 uM, CEFT 1 ug/mL. The method, then:
as §3, §4, §1, §2

The subject of test [8] is CD8+ T cell depleted blood. In words: Whole blood cytokine assay, IFNg, CD8+ T cell depleted blood (Example 2). Particulars: T1D Subjects (n of 6), 24 h, peptides 20 ug/mL, pools 4 ug/mL, NEX-01/Nexgen POOL 25 uM, CEFT 1 ug/mL. The method, then: as §3, §4, §1, §2
Test [9] has as its system CD4+ T cell depleted blood. Nature of the test: Whole blood cytokine assay, IFNg, CD4+ T cell depleted blood (Example 2). The note with it: T1D Subjects (n of 6), 24 h, peptides 20 ug/mL, pools 4 ug/mL, NEX-01/Nexgen POOL 25 uM, CEFT 1 ug/mL. The method, then:
as §3, §4, §1, §2

Setting [10] is: Healthy Subjects (n of 4), whole blood.
[11] abbreviates: T1D Subjects (n of 6), Undepleted WB.

LPLLALLAL [SEQ ID NO: 76]: the “bioactivity in whole blood IP-10 release assay (fold change over medium alone), in words” value in test [1] is “suggests this is an epitope for CD8 T cells”.
On to “20150-24: peptide tested in Example 2 whole blood cytokine assays (Tables 13A/13B, 14) (PLLALLALWGPDPAAAF)”, for which the “Fold Change IL-2, number of subjects positive for ≥1.25 fold production of cytokine over medium only” value with undepleted whole blood [2] (setting [10]) is recorded as 1/4; in the test with undepleted whole blood [2] (setting [11]) it was 4/6; in test [7], 6/6. Besides, the “Fold Change IP-10, number of subjects positive for ≥1.25 fold production of cytokine over medium only” value is 3/6 in test [3], 4/4 with undepleted whole blood [4] (setting [10]), 6/6 in the test with undepleted whole blood [4] (setting [11]) and 5/6 in test [5]. Moreover, the “Fold Change IFNg, number of subjects positive for ≥1.25 fold production of cytokine over medium only” value in the test with undepleted whole blood [6] (setting [10]) is 1/4; in the test with undepleted whole blood [6] (setting [11]), 4/6; in test [8] it was 5/6; in [9], 1/6.
Turning to LLALLALWGPD [SEQ ID NO: 14], in test [1], the “bioactivity in whole blood IP-10 release assay (fold change over medium alone), in words” value was “compatible with an epitope for CD4 T cells”.
